For eight molecules, GI50 and TGI results are on record in PubChem BioAssay (NCI).

Molecules are shown by their SMILES.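 The compound was tested at five concentrations on cells cultured in 96-well plates, with a 48-hour exposure period. GI50 = concentration required for 50% inhibition of growth. At the TGI there is no net growth.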

Test systems include HCC-2998 colon; HOP-92 NSCLC; HS 578T breast; K-562 leukemia; M14 melanoma; MALME-3M melanoma; OVCAR-8 ovarian; PC-3 prostate; SW-620 colon; T-47D breast.
Common to all, as to test: NCI-60 cell line screen, 48 h

`Cc1ccc2c(c1)C(C)Cc1c(Cl)ncnc1N2C` (stereo not given): the GI50 in the assay on HCC-2998 colon is 3.54 µM; in the assay on HOP-92 NSCLC, 2.92 µM; in the assay with HS 578T breast, 1.89 µM; in the assay on K-562 leukemia, 3.47 µM; with M14 melanoma it was 2.77 µM; in the assay on MALME-3M melanoma, 1.76 µM. Moreover, the GI50 in the assay on OVCAR-8 ovarian was 3.77 µM; in the assay on PC-3 prostate, 3.62 µM; with SW-620 colon, 3.2 µM; in the assay with T-47D breast, 6.9 µM. For the same molecule, the TGI was 18.3 µM in the assay with HCC-2998 colon; 8.5 µM with HOP-92 NSCLC; 34 µM in the assay on HS 578T breast; greater than 100 µM in the assay on K-562 leukemia; 22.9 µM with M14 melanoma; 6.5 µM with MALME-3M melanoma. Besides, the TGI in the assay with OVCAR-8 ovarian turned out to be 23.8 µM; with PC-3 prostate, 72.1 µM; in the assay with SW-620 colon it was 13.3 µM; with T-47D breast, 65 µM.
As for `CN(C)CC1C(=O)O[C@H]2[C@H]1CC/C(COC(=O)c1cc3ccccc3[nH]1)=C\CC[C@@]1(C)O[C@@H]21` (stereo not given in full), the GI50 with HCC-2998 colon is 1.78 µM; in the assay with HOP-92 NSCLC, 1.53 µM; in the assay on HS 578T breast, 2.93 µM; with K-562 leukemia, 1.14 µM; with M14 melanoma, 1.76 µM; in the assay with MALME-3M melanoma, 1.8 µM. The GI50 is 2.13 µM in the assay with OVCAR-8 ovarian, 2.14 µM in the assay with PC-3 prostate, 1.75 µM with SW-620 colon and 2.19 µM with T-47D breast. Besides, the TGI with HCC-2998 colon came to 3.58 µM; in the assay with HOP-92 NSCLC, 3.62 µM; in the assay on HS 578T breast it was 13.6 µM; in the assay on K-562 leukemia it was 6.11 µM; in the assay on M14 melanoma, 4.29 µM; with MALME-3M melanoma, 4.56 µM. The TGI was 7.48 µM in the assay on OVCAR-8 ovarian, 5.86 µM in the assay on PC-3 prostate, 4.41 µM with SW-620 colon and 5.54 µM with T-47D breast.
Turning to `CCCCCCCCCCCCOC1C(C(COC2OC(C3COC(C)(C)O3)C3OC(C)(C)OC23)NC(=O)NS(=O)(=O)c2ccccc2)OC2OC(C)(C)OC21` (stereo not given), the GI50 in the assay with HCC-2998 colon is 3.24 µM; with HOP-92 NSCLC it was 2.39 µM; in the assay with HS 578T breast, 2.9 µM; in the assay on K-562 leukemia it was 2.57 µM; in the assay on M14 melanoma, 5.23 µM; with MALME-3M melanoma it was 13.7 µM. Further, the GI50 is 3.35 µM in the assay with OVCAR-8 ovarian, 3.27 µM with PC-3 prostate, 5.14 µM in the assay on SW-620 colon and 8.66 µM in the assay on T-47D breast. The TGI with HCC-2998 colon is 12.8 µM; in the assay with HOP-92 NSCLC, 8.52 µM; with HS 578T breast, 11.1 µM; in the assay on K-562 leukemia, 16.1 µM; in the assay on M14 melanoma, 18.9 µM; with MALME-3M melanoma, 41.8 µM. In addition, the TGI in the assay with OVCAR-8 ovarian worked out at 23.9 µM; in the assay with PC-3 prostate it was 13.8 µM; in the assay on SW-620 colon, 18.5 µM; with T-47D breast, 39.5 µM.
In the case of `C=C1C(=O)O[C@H]2[C@H](OC(C)=O)[C@@H](C)CCC/C(C)=C/CC[C@@]3(C)O[C@@H]3C[C@@H]12`, the TGI was 11.6 µM with HCC-2998 colon; 5.54 µM with HOP-92 NSCLC; 13.2 µM in the assay on HS 578T breast; greater than 100 µM in the assay on K-562 leukemia; greater than 40.4 µM in the assay on M14 melanoma; 30.6 µM in the assay on MALME-3M melanoma. Also, the TGI in the assay with OVCAR-8 ovarian was 2.63 µM; with PC-3 prostate, greater than 47.5 µM; in the assay on SW-620 colon it was greater than 23.1 µM; in the assay with T-47D breast, 3.62 µM.
Turning to `COc1cc(/C=C/C(=O)c2c(C)nc3ccccc3c2/C=C/c2ccc(C)cc2)cc(OC)c1OC`, the GI50 with HCC-2998 colon is 1.73 µM; with HOP-92 NSCLC, 1.61 µM; in the assay with HS 578T breast, 3.26 µM; in the assay on K-562 leukemia, 2.75 µM; in the assay with M14 melanoma, 2.18 µM; with MALME-3M melanoma, 1.85 µM. The GI50 with OVCAR-8 ovarian is 3.25 µM; in the assay with PC-3 prostate, 2.59 µM; in the assay on SW-620 colon it was 3.09 µM; with T-47D breast, 2.49 µM. For the same molecule, the TGI in the assay on HCC-2998 colon is 3.26 µM; in the assay on HOP-92 NSCLC, 3.9 µM; in the assay on HS 578T breast, greater than 100 µM; in the assay on K-562 leukemia, greater than 100 µM; in the assay on M14 melanoma it was 5.03 µM; with MALME-3M melanoma, 3.52 µM. The TGI with OVCAR-8 ovarian was greater than 100 µM; in the assay on PC-3 prostate, 8.76 µM; in the assay with SW-620 colon, greater than 100 µM; in the assay with T-47D breast it was greater than 100 µM.
As to `COc1ccc(-n2cc(-c3cc(OC)c(OC)c(OC)c3)nc2SCc2ccccc2)cc1OC`, the GI50 in the assay with HCC-2998 colon was greater than 100 µM; in the assay with HOP-92 NSCLC, 6.45 µM; with HS 578T breast, greater than 100 µM; in the assay with K-562 leukemia, 54.7 µM; in the assay with M14 melanoma, greater than 91.6 µM; in the assay with MALME-3M melanoma, greater than 100 µM. In addition, the GI50 in the assay with OVCAR-8 ovarian was greater than 83.6 µM; in the assay with PC-3 prostate, 15.3 µM; in the assay with SW-620 colon, greater than 100 µM; with T-47D breast, 12.3 µM. In addition, the TGI with HCC-2998 colon was greater than 100 µM; in the assay with HOP-92 NSCLC, greater than 29.5 µM; with HS 578T breast, greater than 100 µM; in the assay with K-562 leukemia, greater than 100 µM; in the assay with M14 melanoma it was greater than 100 µM; in the assay on MALME-3M melanoma it was greater than 100 µM. In addition, the TGI in the assay with OVCAR-8 ovarian, in the assay on PC-3 prostate, in the assay on SW-620 colon and in the assay with T-47D breast was greater than 100 µM each time.
In the case of `OC(CNCC1CCCO1)Cn1c2ccc(Cl)cc2c2cc(Cl)ccc21` (stereo not given), the GI50 is 1.71 µM with HCC-2998 colon; 2.15 µM in the assay with HOP-92 NSCLC; 2.14 µM in the assay on HS 578T breast; 2.15 µM in the assay with K-562 leukemia; 1.93 µM with MALME-3M melanoma; 2.02 µM in the assay on OVCAR-8 ovarian. Moreover, the GI50 with PC-3 prostate is 1.93 µM; with SW-620 colon it was 1.7 µM; in the assay with T-47D breast, 1.91 µM. For the same molecule, the TGI was 3.15 µM in the assay with HCC-2998 colon; 6.24 µM in the assay with HOP-92 NSCLC; 6.93 µM in the assay on HS 578T breast; 4.76 µM with K-562 leukemia; 3.94 µM with MALME-3M melanoma; 4.22 µM in the assay with OVCAR-8 ovarian. Moreover, the results for the TGI in the assay with PC-3 prostate, in the assay on SW-620 colon and with T-47D breast were 3.74 µM, 3.38 µM and 3.89 µM, respectively.
Take `CC[C@@]1(OC(=O)CN)C(=O)OCc2c1cc1n(c2=O)Cc2cc3c(N)cccc3nc2-1`: the GI50 in the assay on HCC-2998 colon was 0.084 µM; in the assay on HOP-92 NSCLC it was 0.0371 µM; with HS 578T breast it was greater than 100 µM; in the assay with K-562 leukemia, less than 0.0367 µM; in the assay on MALME-3M melanoma, 0.0473 µM; in the assay with OVCAR-8 ovarian it was less than 0.01 µM. Further, the GI50 in the assay on PC-3 prostate was 0.16 µM; in the assay with SW-620 colon it was 0.0247 µM; in the assay with T-47D breast, less than 0.01 µM. The TGI with HCC-2998 colon was 0.782 µM; in the assay with HOP-92 NSCLC, greater than 100 µM; with HS 578T breast it was greater than 100 µM; in the assay with MALME-3M melanoma, 1.75 µM; with OVCAR-8 ovarian, 0.153 µM; in the assay on PC-3 prostate it was greater than 100 µM. In addition, the TGI with SW-620 colon was 3.78 µM; in the assay with T-47D breast it was greater than 100 µM.
